Measurements taken from patent US12305171B2, “Compositions and methods for treating cancer” (bioAffinity Technologies, Inc., priority 2018, dated 2025).
pIC50: −log10 of the molar value. Like-named read-outs stand apart in the source and are kept apart here.

How the values were obtained:
[1] = tested on: LncAP; test: functional siRNA cell proliferation assay (CTG assay, microscopy); assay type: cell-based; conditions: LnCAP (Prostate); 4 txns; 7 days expt; n=3
From the text: (§1) FIGS. 10 A-E illustrate graphs of the effects of siCD320 and siLRP2 on cell proliferation—Cell lines representative of several types of cancers (breast, prostate, skin) were transfected with individual or combinations of siRNAs targeting CD320 (OSC17, OSC47) or LRP2 (05L231, OSL245) as indicated. Cells were repeatedly transfected as outlined in Table 9 for efficient toxicity, then assayed for viability by the CTG assay. Doxorubicin-treated cells served as a positive control for cell toxicity in our assays (Table 8).
(§2) FIGS. 16 A-D illustrate plated cells showing the effects of siCD320 and siLRP2 on four cell lines. Cell lines representative of four types of cancers (breast, two prostate, skin) were transfected with siRNAs targeting CD320 (OSC17) or LRP2 (05L245) individually at 20 nM or in combination (10 nM each) or a negative control siRNA (OSS2) (20 nM) as indicated. Cells were repeatedly transfected for efficient toxicity as in Table 9 and then analyzed by microscopy as indicated.
(§3) Referring now to FIG. 16, treatment of breast, prostate, and skin cancer cells with an inhibitor of CD320 receptor or an inhibitor of LRP2 receptor or a combination of both in an amount effective to inhibit proliferation of the cancer cells as compared to the control cells treated with control siRNA is illustrated. […]

[2] = tested on: MDA-MB-435S; test: as above; assay type: cell-based, human; conditions: MDA-MB-435S (Melanoma); 5 txns; 10 days expt; n=4
From the text: as §1, §2, §3

[3] = tested on: A172; test: functional siRNA cell proliferation screening (CTG assay); assay type: cell-based; conditions: A172 (Glioblastoma); 5 txns; 7 days expt; n=3
Protocol: as §1, with “9” for “10”, “percent cell survival” for “effects”, “(lung, brain) or normal fibroblasts” for “(breast, prostate, skin)”, “OSL245), individually at 20 nM or in combination (10 nM each), or a negative control siRNA (OSS2) (20 nM)” for “OSL245)”
as §1
(§4) Referring now to FIG. 16, treatment of breast, prostate, and skin cancer cells with an inhibitor of CD320 receptor or an inhibitor of LRP2 receptor or a combination of both in an amount effective to inhibit proliferation of the cancer cells as compared to the control cells treated with control siRNA is illustrated. MDA-MB-231, DU145, LnCAP, and MDA-MB-435S cells were plated at 20,000 cells per well in a 24-well plate. The next day, the cells were transected with 20 nM of indicated siRNAs to knock down CD320, LRP2, or scrambled control. For the combination of siRNAs, cells were treated with 10 nM of each siRNA for 20 nM total treatments. The indicated pictures of the cells were taken at the end of the experiment.

[4] = tested on: MCF-7; test: as above; assay type: cell-based; conditions: MCF-7 (Breast); 2 txns; 7 days expt; n=3
Protocol: as §1, with “9” for “10”, “percent cell survival” for “effects”, “(lung, brain) or normal fibroblasts” for “(breast, prostate, skin)”, “OSL245), individually at 20 nM or in combination (10 nM each), or a negative control siRNA (OSS2) (20 nM)” for “OSL245)”
as §1, §4

[5] = tested on: HCC15; test: as above; assay type: cell-based; conditions: HCC15 (Lung); 2 txns; 7 days expt; n=3
Protocol: as §1, with “9” for “10”, “percent cell survival” for “effects”, “(lung, brain) or normal fibroblasts” for “(breast, prostate, skin)”, “OSL245), individually at 20 nM or in combination (10 nM each), or a negative control siRNA (OSS2) (20 nM)” for “OSL245)”
as §1, §4

[6] = tested on: U251; test: as above; assay type: cell-based; conditions: U251 (Glioblastoma); 6 txns; 8 days expt; n=4
Protocol: as §1, with “9” for “10”, “percent cell survival” for “effects”, “(lung, brain) or normal fibroblasts” for “(breast, prostate, skin)”, “OSL245), individually at 20 nM or in combination (10 nM each), or a negative control siRNA (OSS2) (20 nM)” for “OSL245)”
as §1, §4

[7] = tested on: H157; test: as above; assay type: cell-based; conditions: H157 (Lung); 5 txns; 8 days expt; n=3
Protocol: as §1, with “9” for “10”, “percent cell survival” for “effects”, “(lung, brain) or normal fibroblasts” for “(breast, prostate, skin)”, “OSL245), individually at 20 nM or in combination (10 nM each), or a negative control siRNA (OSS2) (20 nM)” for “OSL245)”
as §1, §4

[8] = tested on: GM05659; test: as above; assay type: cell-based; conditions: GM05659 (Normal); 4 txns; 7 days expt; n=3
Protocol: as §1, with “9” for “10”, “percent cell survival” for “effects”, “(lung, brain) or normal fibroblasts” for “(breast, prostate, skin)”, “OSL245), individually at 20 nM or in combination (10 nM each), or a negative control siRNA (OSS2) (20 nM)” for “OSL245)”
as §1, §4

[9] = tested on: DU145; test: functional siRNA cell proliferation assay (CTG assay, microscopy); assay type: cell-based; conditions: DU-145 (Prostate); 4 txns; 7 days expt; n=6
From the text: as §1
(§5) FIGS. 11A-B illustrate the effects of siCD320 and siLRP2 molar proportions on cell proliferation with different molar proportions of siRNA targeting CD320 and siRNA targeting LRP2. Cell lines representative of two types of cancers (breast, prostate) were transfected with different proportions of siRNAs targeting CD320 (OSC17) or LRP2 (05L245) (0-20 nM) or a negative control siRNA (OSS2) as indicated. Cells were repeatedly transfected for efficient toxicity then assayed for viability by the CTG assay. Doxorubicin-treated cells served as a positive control for cell toxicity in our assays (Table 8).
FIGS. 16 A-D illustrate plated cells showing the effects of siCD320 and siLRP2 on four cell lines. […] Cells were repeatedly transfected for efficient toxicity as in Table 9 and then analyzed by microscopy as indicated. […]

[10] = tested on: MDA-MB-231; test: as above; assay type: cell-based; conditions: MDA-MB-231 (Breast); 4 txns; 11 days expt; n=6
From the text: as §1
as §5, with “Cells were repeatedly transfected for efficient toxicity then assayed for viability by the CTG assay. Doxorubicin-treated cells served as a positive control for cell toxicity in our assays (Table 8).” left out
FIGS. 16 A-D illustrate plated cells showing the effects of siCD320 and siLRP2 on four cell lines. […] Cells were repeatedly transfected for efficient toxicity as in Table 9 and then analyzed by microscopy as indicated.
Now, referring to FIG. 10B, MDA-MB-231 triple negative breast cancer cells were plated in a 24-well plate at 20,000 cells/well. […] At day 11, cells were analyzed for cell growth by the CTG assay. […]

[11] = tested on: A172; test: doxorubicin cell viability, CTG assay; assay type: cell-based; conditions: Homo sapiens, A 172, 96 h
Protocol: (§6) A172 and HCC15 cells were plated at 1200 cells/well in a 96 well plate. The next day, cells were treated with doxorubicin at the indicated concentrations. Four days after doxorubicin treatment was initiated, the cells were assayed for viability using the CTG assay. The dashed line indicates the non-linear fitting of the data to calculate an IC50 value.
(§7) A172 and HCC15 cells were plated at 1200 cells/well in a 96 well plate. The next day, cells were treated with doxorubicin at the indicated concentrations. Four days after the doxorubicin exposure was initiated, the cells were assayed for viability using the CTG assay. […] After incubating the cells with the CTG reagent, ATP levels can be indirectly measured as light production using the TECAN luminescence plate reader. As a first step, toxicity of a known chemotherapeutic drug, doxorubicin, was assayed on the cell lines of interest. Doxorubicin was used as a positive control for cell toxicity in our assay.
(§8) The cells lines were plated at 1,000 to 4,000 cells/well in a 96-well plate and treated with doxorubicin the following day. CTG activity was measured 4 days after treatment. IC50 values were calculated by GraphPad Prism Software.

[12] = tested on: HCC15; test: doxorubicin cell viability, CTG assay; assay type: cell-based; conditions: 96 h
Protocol: as §6, §7, §8

[13] = tested on: PC3; test: doxorubicin cell viability, CTG assay; assay type: cell-based; conditions: Homo sapiens, PC-3, 96 h; PC3, Prostate; CTG 4 days after treatment
Protocol: as §7, §8

[14] = tested on: HEK293; test: doxorubicin cell viability, CTG assay; assay type: cell-based; conditions: Homo sapiens, 96 h; HEK293, Other; CTG 4 days after treatment
Protocol: as §7, §8

[15] = tested on: DU145; test: doxorubicin cell viability, CTG assay; assay type: cell-based; conditions: Homo sapiens, DU-145, 96 h; DU145, Prostate; CTG 4 days after treatment
Protocol: as §7, §8

[16] = tested on: U251; test: doxorubicin cell viability, CTG assay; assay type: cell-based; conditions: Homo sapiens, U-251, 96 h; U251, Glioblastoma; CTG 4 days after treatment
Protocol: as §7, §8

[17] = tested on: MDA-MB-435S; test: doxorubicin cell viability, CTG assay; assay type: cell-based; conditions: Homo sapiens, 96 h, Melanoma, CTG 4 days after treatment
Protocol: as §7, §8

[18] = tested on: NCI-H460; test: doxorubicin cell viability, CTG assay; assay type: cell-based; conditions: Homo sapiens, 96 h; NCI-H460, Lung; CTG 4 days after treatment
Protocol: as §7, §8

[19] = tested on: GM05659; test: doxorubicin cell viability, CTG assay; assay type: cell-based; conditions: 96 h; GM05659, Other; CTG 4 days after treatment
Protocol: as §7, §8

`COc1cccc2c1C(=O)c1c(O)c3c(c(O)c1C2=O)C[C@@](O)(C(=O)CO)C[C@@H]3O[C@H]1C[C@H](N)[C@H](O)[C@H](C)O1` [DOX] was tested, and the “percent survival compared to negative control OSS2” value (shortened to “percent survival”) [1] was 38%, the “percent survival” value [2] was 51% and the “percent survival” value [3] was 8%. The “percent survival” value [4] was 5%, the “percent survival” value [5] was 2% and the “percent survival” value [6] was 51%. The “percent survival” value [7] was 20%, the “percent survival” value [8] was 39% and the “percent survival” value [9] was 40%. For the same compound, the “percent survival” value [10] was 7%.
`COc1cccc2c1C(=O)c1c(O)c3c(c(O)c1C2=O)C[C@@](O)(C(=O)CO)C[C@@H]3O[C@H]1C[C@H](N)[C@H](O)[C@H](C)O1` [doxorubicin] was tested, and the pIC50 ([11]; A172, Glioblastoma, CTG 4 days after treatment, read-out: IC50) was 6.88, the pIC50 ([11]; A172 cells, CTG four days after exposure, read-out: IC50 of doxorubicin treatment) was 6.88 and the pIC50 ([12]; HCC15, Lung, CTG 4 days after treatment, read-out: IC50) was 6.78. The pIC50 ([12]; HCC15 cells, CTG four days after exposure, read-out: IC50 of doxorubicin treatment) was 6.78, the pIC50 [13] was 6.41 and the pIC50 [14] was 7.54. It also gave a pIC50 [15] of 6.61, a pIC50 [16] of 7.62 and a pIC50 [17] of 6.49. The pIC50 [18] was 7.25 and the pIC50 [19] was 6.57.
